One assay has as its system C57BL/6J mice. Kind of assay: Acute exacerbation of idiopathic pulmonary fibrosis (IPF-AE) model, bleomycin + LPS (FIG. 5). The format is in vivo. To be noted: Bleo 1.0 mg/kg IT, LPS 0.025 mg/kg IT; 0.3 mg/kg SC day before, of and after LPS. The method, then:
FIGS. 5A-5E: The effect of cationic alkyl modified CNP derivatives in inflammation status of acute exacerbation of idiopathic pulmonary fibrosis (IPF-AE). Error bars indicate standard error of the mean. Increased inflammatory status in lung, especially increase of neutrophils, MCP1, IL-6, are seen in IPF-AE. Its decrease indicates resolution of IPF-AE. […] After 3 weeks, mice were treated with LPS (0.025 mg/kg IT) and treated SC with SEQ ID NO: 29 or 31 at 0.3 mg/kg (0.1 μmol/kg) the day before, of, and after LPS treatment as shown in the diagram. Additionally, a normal control (NC) group without LPS/Bleo treatment, a Bleo group without LPS treatment, and a Control group without test article treatment were also included. […]
Animal care and treatment: Male C57BL/6J mice (6 weeks-old) were purchased from Kyudo (Saga, Japan) and maintained under a 12-hour light/12-hour dark cycle with free access to water and standard mouse diet (MF diet, Oriental Yeast Co., Ltd. Tokyo, Japan). […] Lung weight/body weight ratio increase is a commonly measured parameter that indicates lung damage. […] The expression of MPO was assessed by Image J (NIH, Bethesda, MD, USA). […] Macrophage chemoattractant protein-1 (MCP1) was measured by using ELISA kit (R&D SYSTEMS, Minneapolis M N). […] The gene expression levels of IL-6 were measured with qRT-PCR-analysis by using cDNA synthesis kit (Qiagen; Venlo, the Netherlands). […]

The target of the next assay is T1, human NPRB (Homo sapiens, UniProt P20594).
T1 construct: NPRB R1-T433, (GenBank Accn. #NP_003986.2); made in house; host or cells: Expi293 cells
T1 sequence (P20594 23-455): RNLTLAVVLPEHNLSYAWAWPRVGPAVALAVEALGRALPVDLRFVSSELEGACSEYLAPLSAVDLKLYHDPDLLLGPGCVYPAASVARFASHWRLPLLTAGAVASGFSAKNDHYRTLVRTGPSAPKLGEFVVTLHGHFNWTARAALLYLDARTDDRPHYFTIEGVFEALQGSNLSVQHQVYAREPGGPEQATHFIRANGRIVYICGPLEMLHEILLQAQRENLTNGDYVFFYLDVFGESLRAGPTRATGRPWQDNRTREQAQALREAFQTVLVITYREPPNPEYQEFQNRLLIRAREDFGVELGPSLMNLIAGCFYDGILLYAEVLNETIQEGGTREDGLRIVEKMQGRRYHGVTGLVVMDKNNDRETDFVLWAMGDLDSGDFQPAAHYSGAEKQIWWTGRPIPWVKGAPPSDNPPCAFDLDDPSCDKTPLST
Kind of assay: Fluorescence polarization (FP) assay with CNP-F* probe, NPRB. Format: binding. Particulars: 150 nM test article, 5 nM CNP-F*, 50 nM human NPRB. The method, then:
Error bars represent standard error of the mean. […] NO.
In the presence of [SEQ ID.
The CNP-F* probe was incubated at a final concentration of 5 nM in the presence of 50 nM human NPRB or NPRC in an assay buffer containing PBS, pH 7.4 and 0.01% Triton X-100. A […] volume of CNP-F* probe and NPR were dispensed into a black 96-well Costar flat-bottom polystyrene plate prior to FP measurement. Next, […] volume of SEQ ID. No. 31 (final concentration 150 nM) was added to the premixed probe and NPR. The plate was incubated at room temperature for 10 min. Fluorescence polarization was then measured on Flexstation 3 (excitation wavelength: 480 nm; emission wavelength: 525 nm and cutoff at 515 nm).
CNP-F* was prepared using solid phase peptide synthesis. […] Next, the crude linear peptide was cleavage with 95% TFA in the presence of carbocation scavengers and ether precipitation.

SMILES strings stand for the structures. Bridge positions count the residues as written; N and C are the ends. Square brackets hold non-standard residues; d marks the D form. Peptide text beside a SMILES is read from it. * marks the point of attachment. Palmitoyl = CCCCCCCCCCCCCCCC(=O)*; Dap = NC[C@H](N)C(=O)O; AEEA = NCCOCCOCC(=O)O

`CCCCCCCCCCCCCCCC(=O)NCCOCCOCC(=O)NCCOCCOCC(=O)NCCOCCOCC(=O)N[C@@H](CN)C(=O)N[C@@H](CN)C(=O)NCC(=O)N[C@@H](CC(C)C)C(=O)N[C@@H](CO)C(=O)N[C@@H](CCCCN)C(=O)NCC(=O)N[C@H]1CSSC[C@@H](C(=O)O)NC(=O)CNC(=O)[C@H](CC(C)C)NC(=O)CNC(=O)[C@H](CO)NC(=O)[C@H](CCC(N)=O)NC(=O)[C@H](CO)NC(=O)CNC(=O)[C@H]([C@@H](C)CC)NC(=O)[C@H](CCCNC(=N)N)NC(=O)[C@H](CC(=O)O)NC(=O)[C@H](CC(C)C)NC(=O)[C@H](CCCCN)NC(=O)[C@H](CC(C)C)NC(=O)CNC(=O)[C@H](Cc2ccccc2)NC1=O` [SEQ ID NO: 31] ({Palmitoyl-AEEA-AEEA-AEEA}-[Dap][Dap]GLSKGCFGLKLDRIGSQSGLGC-OH; disulfide 8-24; C-terminus assumed): the MCP1 in lung result with C57BL/6J mice was “significant decrease of MCP1”. Besides, the “Binding to NPRB (FP signal of CNP-F* probe)” value at human NPRB was “low FP signal demonstrates binding”.
